In the assay the test system is Swiss mice, Sarcoma 180 sc, mean tumor weight T/C. As to the kind of experiment: NCI In Vivo Anticancer Drug Screen. Data for tumor model Sarcoma 180 (subcutaneous) in Swiss mice. Particulars: endpoint: mean tumor weight, higher = larger tumour. Summed up:
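Antitumor activity is assessed in mice with transplantable tumors. Treated (T) and vehicle control (C) groups are compared on survival or tumor size.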

[1] abbreviates: dose: 4.0 mg/kg/injection, schedule: Q01DX007 (ip), vehicle: carboxymethylcellulose (CMC).
[2] abbreviates: dose: 25.0 mg/kg/injection, schedule: Q01DX007 (ip), vehicle: saline.
Where [3] appears, read: dose: 50.0 mg/kg/injection, schedule: Q01DX007 (ip), vehicle: saline.

Values joined by “and” are separate entries in the source; they are usually repeats but may differ in a detail not shown here. Identical values can stand only once.

With `CC1(C)O[C@@H]2C[C@H]3[C@@H]4CCC5=CC(=O)CC[C@]5(C)[C@@]4(F)[C@@H](O)C[C@]3(C)[C@]2(C(=O)CO)O1`, the T/C runs as follows: (dose: 2.2 mg/kg/injection, schedule: Q#A X014 (sc), vehicle: steriod suspending solution) 53 % of control and 63 % of control; (dose: 2.3 mg/kg/injection, schedule: Q01DX007 (sc), vehicle: steriod suspending solution) 61 % of control; (dose: 3.3 mg/kg/injection, schedule: Q#A X014 (sc), vehicle: steriod suspending solution) 62 % of control; (dose: 3.5 mg/kg/injection, schedule: Q01DX007 (sc), vehicle: steriod suspending solution) 47 % of control; (dose: 5.0 mg/kg/injection, schedule: Q#A X014 (sc), vehicle: steriod suspending solution) 27 % of control; (dose: 5.3 mg/kg/injection, schedule: Q01DX007 (sc), vehicle: steriod suspending solution) 43 % of control. The T/C by setting is: (dose: 7.5 mg/kg/injection, schedule: Q#A X014 (sc), vehicle: steriod suspending solution) 24 % of control; (dose: 12.0 mg/kg/injection, schedule: Q01DX007 (sc), vehicle: steriod suspending solution) 36 % of control; (dose: 27.0 mg/kg/injection, schedule: Q01DX007 (sc), vehicle: steriod suspending solution) 39 % of control and 40 % of control; (dose: 40.0 mg/kg/injection, schedule: Q01DX007 (sc), vehicle: steriod suspending solution) 32 % of control; (dose: 60.0 mg/kg/injection, schedule: Q01DX007 (sc), vehicle: steriod suspending solution) 24 % of control; (dose: 90.0 mg/kg/injection, schedule: Q01DX007 (sc), vehicle: steriod suspending solution) 19 % of control and 30 % of control. For the same compound, the T/C (dose: 130.0 mg/kg/injection, schedule: Q01DX007 (sc), vehicle: steriod suspending solution) is 16 % of control.

`NC(=O)c1cn(C2OC(CO)C(O)C2O)c2ncnc(N)c12` (stereo not given): the T/C (dose: 0.5 mg/kg/injection, schedule: Q01DX007 (ip), vehicle: carboxymethylcellulose (CMC)) was 87 % of control.

For the compound `O=C(O)C(=O)O.O=C([O-])C(=O)O.O=C([O-])C(=O)O.O=C([O-])C(=O)[O-].[K+].[U]`, the T/C by setting is: (dose: 7.5 mg/kg/injection, schedule: Q#A X014 (ip), vehicle: saline) 51 % of control and 59 % of control; (dose: 11.25 mg/kg/injection, schedule: Q#A X014 (ip), vehicle: saline) 21 % of control.

For `C=C(C)C(=O)O[C@H]1CC2=C[C@@H](C[C@@]3(C)O[C@@H]3[C@H]3OC(=O)C(=C)[C@@H]31)OC2=O`, the T/C (dose: 2.5 mg/kg/injection, schedule: Q01DX007 (ip), vehicle: saline) was 105 % of control; the T/C (dose: 5.0 mg/kg/injection, schedule: Q01DX007 (ip), vehicle: saline) was 106 % of control; the T/C (dose: 10.0 mg/kg/injection, schedule: Q01DX007 (ip), vehicle: saline) is 100 % of control.

`CCCCCCC(=O)NC1=C(N2CC2)C(=O)C(NC(=O)CCCCCC)=C(N2CC2)C1=O`: the T/C runs as follows: (dose: 27.75 mg/kg/injection, schedule: Q#A X014 (ip), vehicle: methylcellulose (MC)) 42 % of control and 50 % of control and 56 % of control; (dose: 41.5 mg/kg/injection, schedule: Q#A X014 (ip), vehicle: methylcellulose (MC)) 38 % of control and 50 % of control and 53 % of control; (dose: 62.5 mg/kg/injection, schedule: Q#A X014 (ip), vehicle: methylcellulose (MC)) 31 % of control.

Regarding `CCn1cnc2c(=S)nc[nH]c21`, the T/C runs as follows: (dose: 50.0 mg/kg/injection, schedule: Q01DX007 (ip), vehicle: carboxymethylcellulose (CMC)) 55 % of control; (dose: 100.0 mg/kg/injection, schedule: Q01DX007 (ip), vehicle: carboxymethylcellulose (CMC)) 25 % of control.

As to `CC(=O)OCC(=O)[C@@]1(O)CC[C@H]2[C@@H]3CCC4=CC(=O)CC[C@]4(C)[C@H]3[C@@H](O)C[C@@]21C`, the T/C by setting is: (dose: 12.5 mg/kg/injection, schedule: Q#A X014 (ip), vehicle: steriod suspending solution) 70 % of control; (dose: 25.0 mg/kg/injection, schedule: Q#A X014 (ip), vehicle: steriod suspending solution) 88 % of control; (dose: 50.0 mg/kg/injection, schedule: Q#A X014 (ip), vehicle: steriod suspending solution) 57 % of control.

Consider `CC1CN(C(=O)CCl)c2ccccc2N1C(=O)CCl` (stereo not given), for which the T/C is 121 % of control (dose: 2.0 mg/kg/injection, schedule: Q01DX007 (ip), vehicle: carboxymethylcellulose (CMC)) and 114 % of control under setting [1].

On to `CCCCNP(=O)(N1CC1C)N1CC1C` (stereo not given), for which the T/C (dose: 7.0 mg/kg/injection, schedule: Q#A X014 (ip), vehicle: saline) was 64 % of control; the T/C (dose: 10.5 mg/kg/injection, schedule: Q#A X014 (ip), vehicle: saline) is 62 % of control; the T/C (dose: 15.5 mg/kg/injection, schedule: Q#A X014 (ip), vehicle: saline) was 50 % of control; the T/C (dose: 23.5 mg/kg/injection, schedule: Q#A X014 (ip), vehicle: saline) was 39 % of control.

On to `COc1ccc2c(c1)CC[C@@H]1[C@@H]2CC[C@]2(C)[C@H](O)[C@H](O)C[C@@H]12`, for which the T/C is, setting by setting: (dose: 0.5 mg/kg/injection, schedule: Q01DX007 (sc), vehicle: steriod suspending solution) 117 % of control; (dose: 1.25 mg/kg/injection, schedule: Q01DX007 (sc), vehicle: steriod suspending solution) 81 % of control; (dose: 2.5 mg/kg/injection, schedule: Q01DX007 (sc), vehicle: steriod suspending solution) 66 % of control and 90 % of control; (dose: 5.0 mg/kg/injection, schedule: Q01DX007 (sc), vehicle: steriod suspending solution) 60 % of control; (dose: 10.0 mg/kg/injection, schedule: Q01DX007 (sc), vehicle: steriod suspending solution) 61 % of control.

For `COC(=O)CC(C(=O)C=[N+]=[N-])N1C(=O)c2ccccc2C1=O` (stereo not given), the T/C (dose: 0.03 mg/kg/injection, schedule: Q01DX007 (ip), vehicle: carboxymethylcellulose (CMC)) was 112 % of control; the T/C (dose: 0.05 mg/kg/injection, schedule: Q01DX007 (ip), vehicle: carboxymethylcellulose (CMC)) was 89 % of control; the T/C (dose: 0.1 mg/kg/injection, schedule: Q01DX007 (ip), vehicle: carboxymethylcellulose (CMC)) is 101 % of control; the T/C (dose: 0.2 mg/kg/injection, schedule: Q01DX007 (ip), vehicle: carboxymethylcellulose (CMC)) was 95 % of control and 102 % of control; the T/C (dose: 0.4 mg/kg/injection, schedule: Q01DX007 (ip), vehicle: carboxymethylcellulose (CMC)) was 115 % of control; the T/C (dose: 0.8 mg/kg/injection, schedule: Q01DX007 (ip), vehicle: carboxymethylcellulose (CMC)) was 88 % of control and 91 % of control. Further, the T/C (dose: 3.2 mg/kg/injection, schedule: Q01DX007 (ip), vehicle: carboxymethylcellulose (CMC)) is 99 % of control; the T/C (dose: 6.4 mg/kg/injection, schedule: Q01DX007 (ip), vehicle: carboxymethylcellulose (CMC)) is 70 % of control and 83 % of control; the T/C (dose: 12.8 mg/kg/injection, schedule: Q01DX007 (ip), vehicle: carboxymethylcellulose (CMC)) is 87 % of control; the T/C (dose: 25.6 mg/kg/injection, schedule: Q01DX007 (ip), vehicle: carboxymethylcellulose (CMC)) was 84 % of control.

With `O=C1c2ccccc2C(=O)N1CCF`, the T/C by setting is: under setting [1], 90 % of control; (dose: 8.0 mg/kg/injection, schedule: Q01DX007 (ip), vehicle: carboxymethylcellulose (CMC)) 72 % of control.

As for `Cc1cc(NC(=O)c2ccc(N)cc2)ccc1N=Nc1ccc(N=Nc2ccc3c(O)cc(S(=O)(=O)O)cc3c2)c2cc(S(=O)(=O)O)ccc12`, the T/C is, setting by setting: (dose: 12.5 mg/kg/injection, schedule: Q01DX007 (ip), vehicle: water) 110 % of control; (dose: 25.0 mg/kg/injection, schedule: Q01DX007 (ip), vehicle: water) 97 % of control; (dose: 50.0 mg/kg/injection, schedule: Q01DX007 (ip), vehicle: water) 62 % of control.

On to `COc1ccc(-c2cc(=O)c3c(O)c(OC)c(O)cc3o2)cc1`, for which the T/C is, setting by setting: under setting [2], 73 % of control; under setting [3], 79 % of control; (dose: 100.0 mg/kg/injection, schedule: Q01DX007 (ip), vehicle: saline) 85 % of control.

As for `CN(C)[C@@H]1C(=O)C(C(=O)NCNC2(C(=O)O)CCCC2)=C(O)[C@@]2(O)C(=O)C3=C(O)c4c(O)cccc4[C@@](C)(O)[C@H]3C[C@@H]12`, the T/C is, setting by setting: under setting [2], 103 % of control; under setting [3], 67 % of control; (dose: 62.0 mg/kg/injection, schedule: Q01DX007 (ip), vehicle: saline) 103 % of control; (dose: 75.0 mg/kg/injection, schedule: Q01DX007 (ip), vehicle: saline) 41 % of control.

As to `CCCCC(=O)OCC1OC(n2cnc3c(=S)nc[nH]c32)C(OC(=O)CCCC)C1OC(=O)CCCC` (stereo not given), the T/C by setting is: (dose: 75.0 mg/kg/injection, schedule: Q01DX007 (ip), vehicle: carboxymethylcellulose (CMC)) 69 % of control; (dose: 125.0 mg/kg/injection, schedule: Q01DX007 (ip), vehicle: carboxymethylcellulose (CMC)) 34 % of control; (dose: 220.0 mg/kg/injection, schedule: Q01DX007 (ip), vehicle: carboxymethylcellulose (CMC)) 96 % of control; (dose: 335.0 mg/kg/injection, schedule: Q01DX007 (ip), vehicle: carboxymethylcellulose (CMC)) 81 % of control; (dose: 750.0 mg/kg/injection, schedule: Q01DX007 (ip), vehicle: carboxymethylcellulose (CMC)) 43 % of control.
